# Results: PubChem BioAssay AID2060912 (Molecular Pharmacology Branch, DTP, NCI, 2025)
# Test system: HUVEC/MSC spheroids viability
# Assay: Human HUVEC/MSC cell line growth inhibition [KRAS2];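 as to viability, T/C: percent of DMSO vehicle control luminescence so 100% = untreated viability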
# Details: for IC50: curve of first compound; for viability, T/C: stronger effect = lower value
# How it was run: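 Stroma-only multicellular spheroids, formed from HUVEC and human MSCs at passages </=5, received RAS-pathway inhibitors with or without a second targeted drug. Dosing followed half-log dilutions from clinically achievable levels.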
# [1] = second compound 0.00949 µM, first compound 0.0316 µM
# [2] = second compound 0.00949 µM, first compound 0.1 µM
# [3] = second compound 0.00949 µM, first compound 0.316 µM
# [4] = second compound 0.00949 µM, first compound 1 µM
# [5] = second compound 0.00949 µM, first compound 3.16 µM
# [6] = second compound 0.00949 µM, first compound 10 µM
# [7] = second compound 0.03 µM, first compound 0.0316 µM
# [8] = second compound 0.03 µM, first compound 0.1 µM
# [9] = second compound 0.03 µM, first compound 0.316 µM
# [10] = second compound 0.03 µM, first compound 1 µM
# [11] = second compound 0.03 µM, first compound 3.16 µM
# [12] = second compound 0.03 µM, first compound 10 µM
# [13] = second compound 0.0949 µM, first compound 0.0316 µM
# [14] = second compound 0.0949 µM, first compound 0.1 µM
# [15] = second compound 0.0949 µM, first compound 0.316 µM
# [16] = second compound 0.0949 µM, first compound 1 µM
# [17] = second compound 0.0949 µM, first compound 3.16 µM
# [18] = second compound 0.0949 µM, first compound 10 µM
# [19] = second compound 0.3 µM, first compound 0.0316 µM
# [20] = second compound 0.3 µM, first compound 0.1 µM
# [21] = second compound 0.3 µM, first compound 0.316 µM
# [22] = second compound 0.3 µM, first compound 1 µM
# [23] = second compound 0.3 µM, first compound 3.16 µM
# [24] = second compound 0.3 µM, first compound 10 µM
# [25] = second compound 0.949 µM, first compound 0.0316 µM
# [26] = second compound 0.949 µM, first compound 0.1 µM
# [27] = second compound 0.949 µM, first compound 0.316 µM
# [28] = second compound 0.949 µM, first compound 1 µM
# [29] = second compound 0.949 µM, first compound 3.16 µM
# [30] = second compound 0.949 µM, first compound 10 µM
# [31] = second compound 3 µM, first compound 0.0316 µM
# [32] = second compound 3 µM, first compound 0.1 µM
# [33] = second compound 3 µM, first compound 0.316 µM
# [34] = second compound 3 µM, first compound 1 µM
# [35] = second compound 3 µM, first compound 3.16 µM
# [36] = second compound 3 µM, first compound 10 µM
compound,measurement,setting,value
CC(=O)Nc1cccc(-n2c(=O)n(C3CC3)c(=O)c3c(Nc4ccc(I)cc4F)n(C)c(=O)c(C)c32)c1 + C=CC(=O)N1CCN(c2nc(OCC3CCCN3C)nc3c2CCN(c2cccc4cccc(C)c24)C3)CC1CC#N,IC50,second compound 0.00949 µM,18.9 nM
same,IC50,second compound 0.03 µM,17.3 nM
same,IC50,second compound 0.0949 µM,15.4 nM
same,IC50,second compound 0.3 µM,13.4 nM
same,IC50,second compound 0.949 µM,15.3 nM
same,IC50,second compound 3 µM,1.85 nM
same,"viability, T/C","second compound 0.00949 µM, first compound 94.9 pM",95.3%
same,"viability, T/C","second compound 0.00949 µM, first compound 0.0003 µM",129%
same,"viability, T/C","second compound 0.00949 µM, first compound 0.000949 µM",125%
same,"viability, T/C","second compound 0.00949 µM, first compound 0.003 µM",116%
same,"viability, T/C","second compound 0.00949 µM, first compound 0.00949 µM",90.5%
same,"viability, T/C","second compound 0.00949 µM, first compound 0.03 µM",23%
same,"viability, T/C","second compound 0.03 µM, first compound 94.9 pM",104%
same,"viability, T/C","second compound 0.03 µM, first compound 0.0003 µM",116%
same,"viability, T/C","second compound 0.03 µM, first compound 0.000949 µM",112%
same,"viability, T/C","second compound 0.03 µM, first compound 0.003 µM",115%
same,"viability, T/C","second compound 0.03 µM, first compound 0.00949 µM",83.8%
same,"viability, T/C","second compound 0.03 µM, first compound 0.03 µM",18.9%
same,"viability, T/C","second compound 0.0949 µM, first compound 94.9 pM",97.7%
same,"viability, T/C","second compound 0.0949 µM, first compound 0.0003 µM",130%
same,"viability, T/C","second compound 0.0949 µM, first compound 0.000949 µM",133%
same,"viability, T/C","second compound 0.0949 µM, first compound 0.003 µM",94.9%
same,"viability, T/C","second compound 0.0949 µM, first compound 0.00949 µM",71.5%
same,"viability, T/C","second compound 0.0949 µM, first compound 0.03 µM",23.5%
same,"viability, T/C","second compound 0.3 µM, first compound 94.9 pM",67%
same,"viability, T/C","second compound 0.3 µM, first compound 0.0003 µM",98.3%
same,"viability, T/C","second compound 0.3 µM, first compound 0.000949 µM",114%
same,"viability, T/C","second compound 0.3 µM, first compound 0.003 µM",97.8%
same,"viability, T/C","second compound 0.3 µM, first compound 0.00949 µM",63.6%
same,"viability, T/C","second compound 0.3 µM, first compound 0.03 µM",18.6%
same,"viability, T/C","second compound 0.949 µM, first compound 94.9 pM",84.9%
same,"viability, T/C","second compound 0.949 µM, first compound 0.0003 µM",91.8%
same,"viability, T/C","second compound 0.949 µM, first compound 0.000949 µM",108%
same,"viability, T/C","second compound 0.949 µM, first compound 0.003 µM",86.7%
same,"viability, T/C","second compound 0.949 µM, first compound 0.00949 µM",73.4%
same,"viability, T/C","second compound 0.949 µM, first compound 0.03 µM",17.2%
same,"viability, T/C","second compound 3 µM, first compound 94.9 pM",96.2%
same,"viability, T/C","second compound 3 µM, first compound 0.0003 µM",105%
same,"viability, T/C","second compound 3 µM, first compound 0.000949 µM",73.8%
same,"viability, T/C","second compound 3 µM, first compound 0.003 µM",32.6%
same,"viability, T/C","second compound 3 µM, first compound 0.00949 µM",2.04%
same,"viability, T/C","second compound 3 µM, first compound 0.03 µM",1.27%
COC(=O)c1ccc2c(C(=Nc3ccc(N(C)C(=O)CN4CCN(C)CC4)cc3)c3ccccc3)c(O)[nH]c2c1 + C=CC(=O)N1CCN(c2nc(OCC3CCCN3C)nc3c2CCN(c2cccc4cccc(C)c24)C3)CC1CC#N,IC50,second compound 0.00949 µM,2180 nM
same,IC50,second compound 0.03 µM,2220 nM
same,IC50,second compound 0.0949 µM,2910 nM
same,IC50,second compound 0.3 µM,2810 nM
same,IC50,second compound 0.949 µM,1640 nM
same,IC50,second compound 3 µM,894 nM
same,"viability, T/C",[1],91.3%
same,"viability, T/C",[2],82.5%
same,"viability, T/C",[3],89.5%
same,"viability, T/C",[4],57.8%
same,"viability, T/C",[5],45.7%
same,"viability, T/C",[6],0.43%
same,"viability, T/C",[7],81.1%
same,"viability, T/C",[8],102%
same,"viability, T/C",[9],76.4%
same,"viability, T/C",[10],52.6%
same,"viability, T/C",[11],52.6%
same,"viability, T/C",[12],0.35%
same,"viability, T/C",[13],76%
same,"viability, T/C",[14],78.3%
same,"viability, T/C",[15],93.3%
same,"viability, T/C",[16],68.1%
same,"viability, T/C",[17],49.2%
same,"viability, T/C",[18],0.37%
same,"viability, T/C",[19],60.5%
same,"viability, T/C",[20],78.7%
same,"viability, T/C",[21],78.3%
same,"viability, T/C",[22],70.3%
same,"viability, T/C",[23],47.7%
same,"viability, T/C",[24],0.35%
same,"viability, T/C",[25],57.5%
same,"viability, T/C",[26],73.2%
same,"viability, T/C",[27],91.1%
same,"viability, T/C",[28],55.5%
same,"viability, T/C",[29],34.6%
same,"viability, T/C",[30],0.31%
same,"viability, T/C",[31],65.2%
same,"viability, T/C",[32],96.5%
same,"viability, T/C",[33],84.3%
same,"viability, T/C",[34],46.6%
same,"viability, T/C",[35],0.43%
same,"viability, T/C",[36],0.33%
COc1cc(Nc2ncc3c(n2)-c2ccc(Cl)cc2C(c2c(F)cccc2OC)=NC3)ccc1C(=O)O + C=CC(=O)N1CCN(c2nc(OCC3CCCN3C)nc3c2CCN(c2cccc4cccc(C)c24)C3)CC1CC#N,IC50,second compound 0.00949 µM,> 10000 nM
same,IC50,second compound 0.03 µM,> 10000 nM
same,IC50,second compound 0.0949 µM,> 10000 nM
same,IC50,second compound 0.3 µM,> 10000 nM
same,IC50,second compound 0.949 µM,7030 nM
same,IC50,second compound 3 µM,5920 nM
same,"viability, T/C",[1],93.2%
same,"viability, T/C",[2],88%
same,"viability, T/C",[3],87.1%
same,"viability, T/C",[4],83.8%
same,"viability, T/C",[5],105%
same,"viability, T/C",[6],66.6%
same,"viability, T/C",[7],77.3%
same,"viability, T/C",[8],86.9%
same,"viability, T/C",[9],86%
same,"viability, T/C",[10],82.9%
same,"viability, T/C",[11],102%
same,"viability, T/C",[12],68.2%
same,"viability, T/C",[13],80.4%
same,"viability, T/C",[14],108%
same,"viability, T/C",[15],98.5%
same,"viability, T/C",[16],74.7%
same,"viability, T/C",[17],81.6%
same,"viability, T/C",[18],61.2%
same,"viability, T/C",[19],79.8%
same,"viability, T/C",[20],79.5%
same,"viability, T/C",[21],76.9%
same,"viability, T/C",[22],91.1%
same,"viability, T/C",[23],87.5%
same,"viability, T/C",[24],69%
same,"viability, T/C",[25],59.9%
same,"viability, T/C",[26],78.9%
same,"viability, T/C",[27],92.3%
same,"viability, T/C",[28],75.8%
same,"viability, T/C",[29],73.2%
same,"viability, T/C",[30],39.7%
same,"viability, T/C",[31],93.4%
same,"viability, T/C",[32],88.5%
same,"viability, T/C",[33],96.4%
same,"viability, T/C",[34],102%
same,"viability, T/C",[35],73.2%
same,"viability, T/C",[36],30.7%
COc1cc2nccc(Oc3ccc(NC(=O)C4(C(=O)Nc5ccc(F)cc5)CC4)cc3)c2cc1OC + C=CC(=O)N1CCN(c2nc(OCC3CCCN3C)nc3c2CCN(c2cccc4cccc(C)c24)C3)CC1CC#N,IC50,second compound 0.00949 µM,4770 nM
same,IC50,second compound 0.03 µM,5940 nM
same,IC50,second compound 0.0949 µM,8740 nM
same,IC50,second compound 0.3 µM,7290 nM
same,IC50,second compound 0.949 µM,> 10000 nM
same,IC50,second compound 3 µM,3800 nM
same,"viability, T/C",[1],88.1%
same,"viability, T/C",[2],102%
same,"viability, T/C",[3],71.1%
same,"viability, T/C",[4],65.7%
same,"viability, T/C",[5],76.6%
same,"viability, T/C",[6],22%
same,"viability, T/C",[7],70.9%
same,"viability, T/C",[8],80.5%
same,"viability, T/C",[9],77.1%
same,"viability, T/C",[10],59.8%
same,"viability, T/C",[11],77.8%
same,"viability, T/C",[12],30.8%
same,"viability, T/C",[13],82.5%
same,"viability, T/C",[14],78.6%
same,"viability, T/C",[15],74%
same,"viability, T/C",[16],77.4%
same,"viability, T/C",[17],88.1%
same,"viability, T/C",[18],46%
same,"viability, T/C",[19],61.5%
same,"viability, T/C",[20],80.8%
same,"viability, T/C",[21],85.7%
same,"viability, T/C",[22],63.9%
same,"viability, T/C",[23],86.6%
same,"viability, T/C",[24],40.4%
same,"viability, T/C",[25],61.9%
same,"viability, T/C",[26],71.8%
same,"viability, T/C",[27],73.3%
same,"viability, T/C",[28],83%
same,"viability, T/C",[29],75.9%
same,"viability, T/C",[30],38.5%
same,"viability, T/C",[31],75.9%
same,"viability, T/C",[32],80.4%
same,"viability, T/C",[33],92.4%
same,"viability, T/C",[34],84.1%
same,"viability, T/C",[35],59.4%
same,"viability, T/C",[36],0.35%
